Measurements taken from patent US9340590B2 (priority 2011, dated 2016).
Positions of bridges follow the written chain, without caps; N, C: chain ends. Non-standard residues stand in square brackets, D forms with d. Residues, ends and D or L forms follow the SMILES beside them. Phe(4-tBu) = CC(C)(C)c1ccc(C[C@H](N)C(=O)O)cc1; Phe(2-Cl) = N[C@@H](Cc1ccccc1Cl)C(=O)O; Phe(4-F) = N[C@@H](Cc1ccc(F)cc1)C(=O)O; Phe(4-Me) = Cc1ccc(C[C@H](N)C(=O)O)cc1; NMeF = CN[C@@H](Cc1ccccc1)C(=O)O; hPhe = N[C@@H](CCc1ccccc1)C(=O)O; NMeL = CN[C@@H](CC(C)C)C(=O)O; NMeV = CN[C@H](C(=O)O)C(C)C

Assays:
Assay in all cases: cell-based
[1] = target: hNav1.3 (Homo sapiens, UniProt Q9NY46); details: IonWorks Quattro, use-dependent protocol, hNav1.3; read-out: IWQ Use Nav1.3
[2] = target: hNav1.5 (Homo sapiens, UniProt Q14524); details: IonWorks Quattro, use-dependent protocol, hNav1.5; read-out: IWQ Use Nav1.5
[3] = target: hNav1.7 (Homo sapiens, UniProt Q15858); assay type: cell-based; details: IonWorks Quattro, use-dependent protocol, hNav1.7; read-out: IWQ Use Nav1.7
hNav1.7, sequence (Q15858 whole entry, looked up): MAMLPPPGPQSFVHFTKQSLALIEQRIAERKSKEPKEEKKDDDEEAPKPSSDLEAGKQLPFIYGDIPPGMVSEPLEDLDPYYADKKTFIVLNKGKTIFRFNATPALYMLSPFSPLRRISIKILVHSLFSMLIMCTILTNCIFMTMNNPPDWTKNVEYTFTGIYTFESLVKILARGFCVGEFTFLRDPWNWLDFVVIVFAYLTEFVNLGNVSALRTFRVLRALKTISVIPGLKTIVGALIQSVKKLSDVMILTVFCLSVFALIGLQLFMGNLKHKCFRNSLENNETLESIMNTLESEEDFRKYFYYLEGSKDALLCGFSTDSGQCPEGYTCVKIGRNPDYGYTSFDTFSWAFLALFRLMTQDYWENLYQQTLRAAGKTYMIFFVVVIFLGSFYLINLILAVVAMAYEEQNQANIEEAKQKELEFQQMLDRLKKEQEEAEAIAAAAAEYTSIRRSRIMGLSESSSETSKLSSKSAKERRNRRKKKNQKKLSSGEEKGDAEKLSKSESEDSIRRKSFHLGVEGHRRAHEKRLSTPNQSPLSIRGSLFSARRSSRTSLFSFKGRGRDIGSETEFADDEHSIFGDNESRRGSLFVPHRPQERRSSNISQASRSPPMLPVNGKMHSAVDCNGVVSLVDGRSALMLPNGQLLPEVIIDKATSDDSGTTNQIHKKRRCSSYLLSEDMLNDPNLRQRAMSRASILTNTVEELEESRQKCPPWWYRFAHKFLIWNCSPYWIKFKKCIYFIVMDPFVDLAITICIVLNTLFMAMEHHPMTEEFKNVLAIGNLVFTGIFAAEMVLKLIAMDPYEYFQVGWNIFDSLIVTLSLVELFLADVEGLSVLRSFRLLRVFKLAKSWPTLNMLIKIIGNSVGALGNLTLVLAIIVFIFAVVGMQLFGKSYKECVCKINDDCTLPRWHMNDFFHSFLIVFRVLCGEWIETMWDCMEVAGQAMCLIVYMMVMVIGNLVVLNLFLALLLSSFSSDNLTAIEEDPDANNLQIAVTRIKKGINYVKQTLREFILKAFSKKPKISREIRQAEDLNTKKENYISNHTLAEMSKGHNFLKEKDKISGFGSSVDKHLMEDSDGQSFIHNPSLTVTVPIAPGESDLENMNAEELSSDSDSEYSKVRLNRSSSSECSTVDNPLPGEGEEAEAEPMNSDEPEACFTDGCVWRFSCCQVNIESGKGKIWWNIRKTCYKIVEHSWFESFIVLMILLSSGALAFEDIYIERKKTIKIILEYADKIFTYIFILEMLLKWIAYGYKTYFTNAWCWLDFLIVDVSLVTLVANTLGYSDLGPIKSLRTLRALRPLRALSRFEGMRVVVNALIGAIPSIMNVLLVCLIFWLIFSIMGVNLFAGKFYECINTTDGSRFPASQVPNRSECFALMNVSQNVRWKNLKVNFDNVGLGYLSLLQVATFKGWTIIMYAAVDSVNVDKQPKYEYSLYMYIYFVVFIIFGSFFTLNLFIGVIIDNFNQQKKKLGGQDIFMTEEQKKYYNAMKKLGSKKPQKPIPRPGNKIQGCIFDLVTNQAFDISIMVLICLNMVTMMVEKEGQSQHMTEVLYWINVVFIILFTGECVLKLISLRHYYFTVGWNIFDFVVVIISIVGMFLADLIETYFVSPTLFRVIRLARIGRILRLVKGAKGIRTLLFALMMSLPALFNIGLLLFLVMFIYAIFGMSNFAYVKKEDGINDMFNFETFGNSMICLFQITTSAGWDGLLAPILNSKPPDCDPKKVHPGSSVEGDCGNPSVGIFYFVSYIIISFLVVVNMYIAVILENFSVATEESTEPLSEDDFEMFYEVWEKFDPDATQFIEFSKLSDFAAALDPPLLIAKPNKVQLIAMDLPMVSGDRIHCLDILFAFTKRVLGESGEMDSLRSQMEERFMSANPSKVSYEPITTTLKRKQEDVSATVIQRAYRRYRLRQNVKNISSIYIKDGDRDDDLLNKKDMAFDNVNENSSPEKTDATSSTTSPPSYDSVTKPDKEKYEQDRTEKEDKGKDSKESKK

hNav1.3, sequence (Q9NY46 whole entry, looked up): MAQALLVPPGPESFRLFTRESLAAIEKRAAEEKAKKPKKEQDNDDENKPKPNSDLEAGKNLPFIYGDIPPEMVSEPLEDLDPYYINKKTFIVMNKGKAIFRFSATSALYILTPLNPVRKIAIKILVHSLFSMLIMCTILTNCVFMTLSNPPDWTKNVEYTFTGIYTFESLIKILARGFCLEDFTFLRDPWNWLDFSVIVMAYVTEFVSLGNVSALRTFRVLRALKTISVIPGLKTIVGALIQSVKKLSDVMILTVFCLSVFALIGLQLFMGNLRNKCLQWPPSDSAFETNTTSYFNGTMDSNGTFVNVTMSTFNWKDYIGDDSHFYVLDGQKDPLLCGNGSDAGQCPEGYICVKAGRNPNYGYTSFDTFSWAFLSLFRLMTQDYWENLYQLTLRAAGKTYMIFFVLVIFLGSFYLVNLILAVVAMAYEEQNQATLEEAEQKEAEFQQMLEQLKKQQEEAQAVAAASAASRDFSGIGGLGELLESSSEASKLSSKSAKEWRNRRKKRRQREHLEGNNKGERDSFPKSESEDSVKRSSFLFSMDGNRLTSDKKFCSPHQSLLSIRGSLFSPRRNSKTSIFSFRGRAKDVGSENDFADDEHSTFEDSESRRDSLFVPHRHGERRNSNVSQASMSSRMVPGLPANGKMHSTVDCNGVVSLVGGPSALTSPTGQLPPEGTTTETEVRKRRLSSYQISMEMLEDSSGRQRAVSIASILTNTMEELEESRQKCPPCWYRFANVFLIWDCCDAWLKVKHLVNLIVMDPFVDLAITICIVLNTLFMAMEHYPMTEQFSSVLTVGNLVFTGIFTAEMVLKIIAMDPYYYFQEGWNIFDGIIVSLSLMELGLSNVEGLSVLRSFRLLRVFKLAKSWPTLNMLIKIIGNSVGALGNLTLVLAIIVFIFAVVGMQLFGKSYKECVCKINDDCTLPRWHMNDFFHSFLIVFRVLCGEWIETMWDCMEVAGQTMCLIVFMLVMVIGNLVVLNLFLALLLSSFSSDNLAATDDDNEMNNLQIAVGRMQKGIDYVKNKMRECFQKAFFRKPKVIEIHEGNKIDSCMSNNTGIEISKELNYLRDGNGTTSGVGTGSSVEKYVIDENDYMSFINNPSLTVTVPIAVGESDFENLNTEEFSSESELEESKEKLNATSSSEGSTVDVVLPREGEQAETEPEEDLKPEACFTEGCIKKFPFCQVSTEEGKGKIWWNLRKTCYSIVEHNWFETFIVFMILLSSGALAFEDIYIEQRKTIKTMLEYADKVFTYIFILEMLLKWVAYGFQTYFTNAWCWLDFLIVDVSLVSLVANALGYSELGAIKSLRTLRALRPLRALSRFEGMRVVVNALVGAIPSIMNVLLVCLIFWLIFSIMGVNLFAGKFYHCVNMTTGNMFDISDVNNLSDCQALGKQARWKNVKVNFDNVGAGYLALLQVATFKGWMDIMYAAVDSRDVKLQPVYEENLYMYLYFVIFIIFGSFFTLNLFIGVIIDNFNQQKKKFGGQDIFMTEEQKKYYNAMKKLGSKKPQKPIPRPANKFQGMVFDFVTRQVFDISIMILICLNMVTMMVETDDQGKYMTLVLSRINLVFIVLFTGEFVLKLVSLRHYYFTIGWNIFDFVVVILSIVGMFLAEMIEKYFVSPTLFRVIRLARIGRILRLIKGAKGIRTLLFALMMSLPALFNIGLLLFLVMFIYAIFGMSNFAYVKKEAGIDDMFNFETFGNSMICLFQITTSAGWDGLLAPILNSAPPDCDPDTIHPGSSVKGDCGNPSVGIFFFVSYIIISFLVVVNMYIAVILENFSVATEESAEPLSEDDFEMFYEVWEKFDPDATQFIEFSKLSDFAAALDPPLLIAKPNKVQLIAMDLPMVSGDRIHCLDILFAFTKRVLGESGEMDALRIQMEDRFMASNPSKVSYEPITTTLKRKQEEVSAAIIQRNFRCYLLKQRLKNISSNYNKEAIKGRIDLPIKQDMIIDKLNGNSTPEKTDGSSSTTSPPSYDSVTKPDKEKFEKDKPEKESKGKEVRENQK

## CC[C@H](C)[C@@H]1NC(=O)[C@@H]2CSSC[C@@H]3NC(=O)[C@H](C(C)C)NC(=O)[C@H](CC(C)C)NC(=O)[C@H](CC(N)=O)NC(=O)[C@@H]4CCCN4C(=O)[C@H](CCCNC(=N)N)NC(=O)[C@H](CSSC[C@H](NC(=O)[C@@H](N)CC(=O)O)C(=O)N[C@@H](CC(C)C)C(=O)NCC(=O)N[C@@H](Cc4ccc(F)cc4)C(=O)N[C@@H](Cc4ccccc4)C(=O)N[C@@H](CCCNC(=N)N)C(=O)N[C@@H](CCCCN)C(=O)N2)NC(=O)[C@H](CSSC[C@@H](C(=O)N[C@@H](CCCCN)C(=O)N[C@@H](Cc2ccc(O)cc2)C(=O)N[C@H](C(=O)N[C@@H](Cc2ccccc2)C(N)=O)C(C)C)NC(=O)[C@H](Cc2c[nH]c4ccccc24)NC(=O)[C@H](CCCCN)NC(=O)[C@H](Cc2c[nH]cn2)NC(=O)[C@H]([C@@H](C)O)NC(=O)[C@H](CCCNC(=N)N)NC(=O)[C@H](CO)NC3=O)NC(=O)[C@H](CCCCN)NC(=O)[C@H](CC(=O)O)NC(=O)[C@H](CC(N)=O)NC(=O)[C@H](CC(=O)O)NC(=O)[C@@H]2CCCN2C1=O [compound 624] (H-DCLG[Phe(4-F)]FRKCIPDNDKCCRPNLVCSRTHKWCKYVF-NH2; disulfide 2-17, 9-23, 16-30)
[1]
  IC50: 20 nM
[2]
  IC50: 11700 nM
[3]
  IC50: 60 nM

## CC[C@H](C)[C@@H]1NC(=O)[C@@H]2CSSC[C@@H]3NC(=O)[C@H](C(C)C)NC(=O)[C@H](CC(C)C)NC(=O)[C@H](CC(N)=O)NC(=O)[C@@H]4CCCN4C(=O)[C@H](CCCNC(=N)N)NC(=O)[C@H](CSSC[C@H](NC(=O)[C@@H](N)CC(=O)O)C(=O)N[C@@H](CC(C)C)C(=O)NCC(=O)N[C@@H](Cc4ccc(C)cc4)C(=O)N[C@@H](Cc4ccccc4)C(=O)N[C@@H](CCCNC(=N)N)C(=O)N[C@@H](CCCCN)C(=O)N2)NC(=O)[C@H](CSSC[C@@H](C(=O)N[C@@H](CCCCN)C(=O)N[C@@H](Cc2ccc(O)cc2)C(=O)N[C@H](C(=O)N[C@@H](Cc2ccccc2)C(N)=O)C(C)C)NC(=O)[C@H](Cc2c[nH]c4ccccc24)NC(=O)[C@H](CCCCN)NC(=O)[C@H](Cc2c[nH]cn2)NC(=O)[C@H]([C@@H](C)O)NC(=O)[C@H](CCCNC(=N)N)NC(=O)[C@H](CO)NC3=O)NC(=O)[C@H](CCCCN)NC(=O)[C@H](CC(=O)O)NC(=O)[C@H](CC(N)=O)NC(=O)[C@H](CC(=O)O)NC(=O)[C@@H]2CCCN2C1=O [compound 625] (H-DCLG[Phe(4-Me)]FRKCIPDNDKCCRPNLVCSRTHKWCKYVF-NH2; disulfide 2-17, 9-23, 16-30)
[1]
  IC50: 51 nM
[2]
  IC50: 6500 nM
[3]
  IC50: 63 nM

## CC[C@H](C)[C@@H]1NC(=O)[C@@H]2CSSC[C@@H]3NC(=O)[C@H](C(C)C)NC(=O)[C@H](CC(C)C)NC(=O)[C@H](CC(N)=O)NC(=O)[C@@H]4CCCN4C(=O)[C@H](CCCNC(=N)N)NC(=O)[C@H](CSSC[C@H](NC(=O)[C@@H](N)CC(=O)O)C(=O)N[C@@H](CC(C)C)C(=O)NCC(=O)N[C@@H](Cc4ccc(C(C)(C)C)cc4)C(=O)N[C@@H](Cc4ccccc4)C(=O)N[C@@H](CCCNC(=N)N)C(=O)N[C@@H](CCCCN)C(=O)N2)NC(=O)[C@H](CSSC[C@@H](C(=O)N[C@@H](CCCCN)C(=O)N[C@@H](Cc2ccc(O)cc2)C(=O)N[C@H](C(=O)N[C@@H](Cc2ccccc2)C(N)=O)C(C)C)NC(=O)[C@H](Cc2c[nH]c4ccccc24)NC(=O)[C@H](CCCCN)NC(=O)[C@H](Cc2c[nH]cn2)NC(=O)[C@H]([C@@H](C)O)NC(=O)[C@H](CCCNC(=N)N)NC(=O)[C@H](CO)NC3=O)NC(=O)[C@H](CCCCN)NC(=O)[C@H](CC(=O)O)NC(=O)[C@H](CC(N)=O)NC(=O)[C@H](CC(=O)O)NC(=O)[C@@H]2CCCN2C1=O [compound 626] (H-DCLG[Phe(4-tBu)]FRKCIPDNDKCCRPNLVCSRTHKWCKYVF-NH2; disulfide 2-17, 9-23, 16-30)
[1]
  IC50: 21 nM
[2]
  IC50: 4700 nM
[3]
  IC50: 52 nM

## CC[C@H](C)[C@@H]1NC(=O)[C@@H]2CSSC[C@@H]3NC(=O)[C@H](C(C)C)NC(=O)[C@H](CC(C)C)NC(=O)[C@H](CC(N)=O)NC(=O)[C@@H]4CCCN4C(=O)[C@H](CCCNC(=N)N)NC(=O)[C@H](CSSC[C@H](NC(=O)[C@@H](N)CC(=O)O)C(=O)N[C@@H](CC(C)C)C(=O)NCC(=O)N(C)[C@@H](C(C)C)C(=O)N[C@@H](Cc4ccccc4)C(=O)N[C@@H](CCCNC(=N)N)C(=O)N[C@@H](CCCCN)C(=O)N2)NC(=O)[C@H](CSSC[C@@H](C(=O)N[C@@H](CCCCN)C(=O)N[C@@H](Cc2ccc(O)cc2)C(=O)N[C@H](C(=O)N[C@@H](Cc2ccccc2)C(N)=O)C(C)C)NC(=O)[C@H](Cc2c[nH]c4ccccc24)NC(=O)[C@H](CCCCN)NC(=O)[C@H](Cc2c[nH]cn2)NC(=O)[C@H]([C@@H](C)O)NC(=O)[C@H](CCCNC(=N)N)NC(=O)[C@H](CO)NC3=O)NC(=O)[C@H](CCCCN)NC(=O)[C@H](CC(=O)O)NC(=O)[C@H](CC(N)=O)NC(=O)[C@H](CC(=O)O)NC(=O)[C@@H]2CCCN2C1=O [compound 627] (H-DCLG[NMeV]FRKCIPDNDKCCRPNLVCSRTHKWCKYVF-NH2; disulfide 2-17, 9-23, 16-30)
[1]
  IC50: 250 nM
[2]
  IC50: 6000 nM
[3]
  IC50: 190 nM

## CC[C@H](C)[C@@H]1NC(=O)[C@@H]2CSSC[C@@H]3NC(=O)[C@H](C(C)C)NC(=O)[C@H](CC(C)C)NC(=O)[C@H](CC(N)=O)NC(=O)[C@@H]4CCCN4C(=O)[C@H](CCCNC(=N)N)NC(=O)[C@H](CSSC[C@H](NC(=O)[C@@H](N)CC(=O)O)C(=O)N[C@@H](CC(C)C)C(=O)NCC(=O)N(C)[C@@H](CC(C)C)C(=O)N[C@@H](Cc4ccccc4)C(=O)N[C@@H](CCCNC(=N)N)C(=O)N[C@@H](CCCCN)C(=O)N2)NC(=O)[C@H](CSSC[C@@H](C(=O)N[C@@H](CCCCN)C(=O)N[C@@H](Cc2ccc(O)cc2)C(=O)N[C@H](C(=O)N[C@@H](Cc2ccccc2)C(N)=O)C(C)C)NC(=O)[C@H](Cc2c[nH]c4ccccc24)NC(=O)[C@H](CCCCN)NC(=O)[C@H](Cc2c[nH]cn2)NC(=O)[C@H]([C@@H](C)O)NC(=O)[C@H](CCCNC(=N)N)NC(=O)[C@H](CO)NC3=O)NC(=O)[C@H](CCCCN)NC(=O)[C@H](CC(=O)O)NC(=O)[C@H](CC(N)=O)NC(=O)[C@H](CC(=O)O)NC(=O)[C@@H]2CCCN2C1=O [compound 628] (H-DCLG[NMeL]FRKCIPDNDKCCRPNLVCSRTHKWCKYVF-NH2; disulfide 2-17, 9-23, 16-30)
[1]
  IC50: 91 nM
[2]
  IC50: 8400 nM
[3]
  IC50: 76 nM

## CC[C@H](C)[C@@H]1NC(=O)[C@@H]2CSSC[C@@H]3NC(=O)[C@H](C(C)C)NC(=O)[C@H](CC(C)C)NC(=O)[C@H](CC(N)=O)NC(=O)[C@@H]4CCCN4C(=O)[C@H](CCCNC(=N)N)NC(=O)[C@H](CSSC[C@H](NC(=O)[C@@H](N)CC(=O)O)C(=O)N[C@@H](CC(C)C)C(=O)NCC(=O)N(C)[C@@H](Cc4ccccc4)C(=O)N[C@@H](Cc4ccccc4)C(=O)N[C@@H](CCCNC(=N)N)C(=O)N[C@@H](CCCCN)C(=O)N2)NC(=O)[C@H](CSSC[C@@H](C(=O)N[C@@H](CCCCN)C(=O)N[C@@H](Cc2ccc(O)cc2)C(=O)N[C@H](C(=O)N[C@@H](Cc2ccccc2)C(N)=O)C(C)C)NC(=O)[C@H](Cc2c[nH]c4ccccc24)NC(=O)[C@H](CCCCN)NC(=O)[C@H](Cc2c[nH]cn2)NC(=O)[C@H]([C@@H](C)O)NC(=O)[C@H](CCCNC(=N)N)NC(=O)[C@H](CO)NC3=O)NC(=O)[C@H](CCCCN)NC(=O)[C@H](CC(=O)O)NC(=O)[C@H](CC(N)=O)NC(=O)[C@H](CC(=O)O)NC(=O)[C@@H]2CCCN2C1=O [compound 629] (H-DCLG[NMeF]FRKCIPDNDKCCRPNLVCSRTHKWCKYVF-NH2; disulfide 2-17, 9-23, 16-30)
[1]
  IC50: 95 nM
[2]
  IC50: 13600 nM
[3]
  IC50: 77 nM

## CC[C@H](C)[C@@H]1NC(=O)[C@@H]2CSSC[C@@H]3NC(=O)[C@H](C(C)C)NC(=O)[C@H](CC(C)C)NC(=O)[C@H](CC(N)=O)NC(=O)[C@@H]4CCCN4C(=O)[C@H](CCCNC(=N)N)NC(=O)[C@H](CSSC[C@H](NC(=O)[C@@H](N)CC(=O)O)C(=O)N[C@@H](CC(C)C)C(=O)NCC(=O)N[C@@H](Cc4ccccc4Cl)C(=O)N[C@@H](Cc4ccccc4)C(=O)N[C@@H](CCCNC(=N)N)C(=O)N[C@@H](CCCCN)C(=O)N2)NC(=O)[C@H](CSSC[C@@H](C(=O)N[C@@H](CCCCN)C(=O)N[C@@H](Cc2ccc(O)cc2)C(=O)N[C@H](C(=O)N[C@@H](Cc2ccccc2)C(N)=O)C(C)C)NC(=O)[C@H](Cc2c[nH]c4ccccc24)NC(=O)[C@H](CCCCN)NC(=O)[C@H](Cc2c[nH]cn2)NC(=O)[C@H]([C@@H](C)O)NC(=O)[C@H](CCCNC(=N)N)NC(=O)[C@H](CO)NC3=O)NC(=O)[C@H](CCCCN)NC(=O)[C@H](CC(=O)O)NC(=O)[C@H](CC(N)=O)NC(=O)[C@H](CC(=O)O)NC(=O)[C@@H]2CCCN2C1=O [compound 630] (H-DCLG[Phe(2-Cl)]FRKCIPDNDKCCRPNLVCSRTHKWCKYVF-NH2; disulfide 2-17, 9-23, 16-30)
[1]
  IC50: 9 nM
[2]
  IC50: 5800 nM
[3]
  IC50: 60 nM

## CC[C@H](C)[C@@H]1NC(=O)[C@@H]2CSSC[C@@H]3NC(=O)[C@H](C(C)C)NC(=O)[C@H](CC(C)C)NC(=O)[C@H](CC(N)=O)NC(=O)[C@@H]4CCCN4C(=O)[C@H](CCCNC(=N)N)NC(=O)[C@H](CSSC[C@H](NC(=O)[C@@H](N)CC(=O)O)C(=O)N[C@@H](CC(C)C)C(=O)NCC(=O)N[C@@H](CCc4ccccc4)C(=O)N[C@@H](Cc4ccccc4)C(=O)N[C@@H](CCCNC(=N)N)C(=O)N[C@@H](CCCCN)C(=O)N2)NC(=O)[C@H](CSSC[C@@H](C(=O)N[C@@H](CCCCN)C(=O)N[C@@H](Cc2ccc(O)cc2)C(=O)N[C@H](C(=O)N[C@@H](Cc2ccccc2)C(N)=O)C(C)C)NC(=O)[C@H](Cc2c[nH]c4ccccc24)NC(=O)[C@H](CCCCN)NC(=O)[C@H](Cc2c[nH]cn2)NC(=O)[C@H]([C@@H](C)O)NC(=O)[C@H](CCCNC(=N)N)NC(=O)[C@H](CO)NC3=O)NC(=O)[C@H](CCCCN)NC(=O)[C@H](CC(=O)O)NC(=O)[C@H](CC(N)=O)NC(=O)[C@H](CC(=O)O)NC(=O)[C@@H]2CCCN2C1=O [compound 631] (H-DCLG[hPhe]FRKCIPDNDKCCRPNLVCSRTHKWCKYVF-NH2; disulfide 2-17, 9-23, 16-30)
[1]
  IC50: 5 nM
[2]
  IC50: 4900 nM
[3]
  IC50: 19 nM
